Laboratory results: article PMC8296985, “A Covalent Calmodulin Inhibitor as a Tool to Study Cellular Mechanisms of K-Ras-Driven Stemness” (Frontiers in Cell and Developmental Biology, 2021)

What was measured:
K-RasG12V = K-RasG12V nanoclustering-BRET assay in HEK293-EBNA cells; assay type: cell-based
Protocol: (§1) BRET assays were essentially performed as described by others ([Lavoie et al., 2013]; [Bery et al., 2018]). About 100,00–150,000 HEK293-EBNA ([Meissner et al., 2001]) cells were seeded per well of a 12-well plate in 1 ml of DMEM containing 10% FBS and 2 mM L-glutamine and were grown for 24 h. Next day, Rluc8-tagged donor and GFP2-tagged acceptor constructs were transfected into cells using a jetPRIME transfection reagent (cat. no. 114-75, Polyplus). Each well was transfected with about 1 μg of plasmid DNA using 3 μl of the jetPRIME reagent. For BRET donor saturation titration experiments, the concentration of donor plasmid (25 ng) was kept constant, and the concentration of acceptor plasmid was increased from 0 to 500 ng for RasG12V BRET pairs and 0–1,000 ng for K-Ras/CaM BRET pairs. The empty pcDNA3.1(-) plasmid was used to top-up the total DNA load per transfection. After 24 h of transfection, cells were treated with compounds or vehicle control (DMSO 0.2% v/v in a growth medium) at the specified concentration for 24 h or the stipulated time period in case of the time-course experiments. The cells from one well of a 12-well plate were collected, washed, and re-plated in PBS (cat. no. 14190-094, Gibco, Thermo Fisher Scientific) on flat bottom, white 96-well plates (cat. no. 236108, Nunc, Thermo Fisher Scientific) as four technical replicates containing 90 μl of cell suspension per well. Then fluorescence intensity followed by BRET readings were carried out on a Clariostar (BMG Labtech) plate reader at 25°C. The fluorescence intensity (RFU) of GFP2 was measured with excitation at 405 ± 10 nm and emission 515 ± 10 nm; it is proportional to the acceptor concentration [acceptor]. BRET readings were taken well by well by adding 10 μl of 100 μM coelenterazine 400a (cat. no. C-320, GoldBio), the Rluc8 substrate to each well (final concentration of 10 μM) using the injector present in the plate reader. Luminescence emission intensities were simultaneously recorded at 410 ± 40 nm (RLU, proportional to [donor]) and 515 ± 15 nm (BRET signal).
(§2) The raw BRET ratio was calculated as the BRET signal measured at 515 nm divided by the emission signal measured at 410 nm (RLU). The BRET ratio was obtained by subtracting the raw BRET ratio by a background BRET signal measured for cells expressing only the donor ([Bacart et al., 2008]) as indicated in the formula below:
(§3) For BRET donor saturation titration experiments, the BRET ratio was plotted against the [acceptor]/[donor] ratio. Technical repeat data points were averaged, and data points from all biological repeats were collected into one graph for subsequent fitting. The BRET ratio vs. relative expression data were fitted using a binding saturation equation in the Prism (GraphPad) software to obtain BRETmax and BRET50 using the equation y=BRETmax×x/BRET50+x , where x is the relative expression and y is the BRET ratio. BRETmax represents the maximum saturation BRET signal and depends on the structural parameters (distance, orientation) of the BRET complex. BRET50 corresponds to the ratio of the acceptor construct over the donor construct required to attain 50% of the maximum BRET signal and is a measure of the effective relative affinity between the interacting BRET pair ([Marullo and Bouvier, 2007]).
When applying the DSS analysis to nanoclustering-BRET data, we used mevastatin (10 μM) to obtain the asymptote parameter (a) for the maximal inhibition effect, as it prevents the prenylation of Ras proteins, their plasma membrane trafficking, and therefore nanoclustering. Otherwise, normalized BRET ratio data were converted to % inhibition and then subsequently uploaded onto the Breeze site (see text footnote 1).

K-RasG12V/CaM = target: T1, K-RasG12V/CaM (Homo sapiens, UniProt P0DP23); test: Rluc8-K-RasG12V/GFP2-CaM interaction BRET in HEK293-EBNA cells; assay type: cell-based; conditions: for IC50: 24-h exposure, A/D plasmid ratio 9/1, read-out: IC50 of Rluc8-K-RasG12V/GFP2-CaM BRET signal
T1 construct: expressed in transfected cells; host or cells: HEK293-EBNA
Protocol: as §1, §2, §3

HeLa cells = test: Centrosome number / multipolar phenotype in synchronized HeLa cells expressing mCherry-CaM; assay type: cell-based; conditions: 2 h; calmidazolium 20 μM, 1 50 μM, with MG132 10 μM
Protocol: To evaluate the effect of compounds on centrosome numbers during mitosis, HeLa cells were seeded in 6-well plates onto sterile coverslips and cotransfected with 0.5 μg of pmCherry-CaM and 1.5 μg pEGFP-Centrin1 plasmids using 4 μl of jetPRIME. Twenty-four hours after the transfection, cells were synchronized with 60 ng/ml of nocodazole for 16 h. After the removal of nocodazole, the cells were treated with the […] MG132 (10 μM) to block the cells in metaphase and either calmidazolium (20 μM), 1 (50 μM), or DMSO (0.5%) for 2 h. Cells were then fixed with 4% paraformaldehyde in PBS for 10 min at ambient temperature. After washing with PBS-Tween 0.05%, DNA was stained with a 1 μg/ml solution of DAPI diluted in PBS for 10 min. Coverslips were mounted on glass slides using Vectashield, and images were captured on a spinning disk confocal microscope. Images were analyzed with the ImageJ software, and the number of transfected mitotic cells with multipolar and normal bipolar phenotypes was counted (between 35 and 70 cells per test condition). The percentage multipolar vs. bipolar cells was computed to generate the plot using the Prism software.

calmodulin (CaM) = calmodulin (CaM) (Bos taurus, UniProt P62157); test: Fluorescence polarization assay, displacement of F-PMCA peptide from CaM; conditions: for kinact/KI: read-out: k2/Ki second-order rate constant

Kd (calmodulin (CaM)) [µM]	affinity difference between Calmirasone1 and calmidazolium (calmodulin (CaM); Kd 0.87 μM vs […]) [fold]	affinity for CaM relative to OphA (calmodulin (CaM); after 24-h incubation, higher affinity than OphA)	Compound	reduction in the K-RasG12V BRET signal (K-RasG12V; 1 at 50 μM, within 10 min of treatment) [%]	higher effectivity than calmidazolium in cell biological experiments (K-RasG12V; Calmirasone1 used at 2.5-fold higher concentration, Figures 3F, 7B) [fold]	IC50 (K-RasG12V/CaM) [µM]	multipolar phenotype (multiple mCherry-CaM-positive centrosomes) (HeLa cells)	Ki (calmodulin (CaM)) [µM]	kinact/KI (calmodulin (CaM)) [M⁻¹ s⁻¹]	time-dependent change of K-RasG12V nanoclustering-BRET signal (K-RasG12V; 2-h treatment timeframe, OphA 10 μM, mevastatin 10 μM)	K-Ras selective reduction of nanoclustering-BRET (K-Ras vs H-Ras) (K-RasG12V; 24 h, calmidazolium 20 μM, OphA 2.5 μM, prostratin 10 μM, mevastatin 10 μM, benzazulenones 20 μM) [fold]	effect on Rluc8-K-RasG12V/GFP2-CaM BRET signal, single concentration (K-RasG12V/CaM; calmidazolium 20 μM, prostratin 20 μM, OphA 5 μM)
0.87	64	fourfold	CC(C)c1ccc2cc(C(F)(F)F)c(=O)c3c(N4CCCCC4)c(C=O)c(c1)c23 [Compound 1]	38	> 25	31 ± 2	significantly pronounced	52	2.78			
			CC(C)=C[C@H]1C[C@H](C)[C@]2(CC[C@]3(C)C[C@H]4[C@H](C(=O)C[C@@]4(C)O)/C(C=O)=C\C[C@H]32)O1 [OphA, Ophiobolin A, reference compound]			12 ± 2		79	3.89	no significant BRET change	1.2	significantly reduced the BRET signal
